Data: patent EP3436445B1, “HISTONE DEMETHYLASE INHIBITORS” (Celgene Quanticel Research, Inc., priority 2016, dated 2017)
pIC50: −log10 of the molar value.

Legend:
[1] = target: T1, FBXL10 (Homo sapiens, UniProt Q8NHM5); experiment: FBXL10 in vitro enzyme inhibition assay (AlphaScreen); format: biochemical
T1 construct: purchased BPS Bioscience 50120
T1 sequence (Q8NHM5 1-650): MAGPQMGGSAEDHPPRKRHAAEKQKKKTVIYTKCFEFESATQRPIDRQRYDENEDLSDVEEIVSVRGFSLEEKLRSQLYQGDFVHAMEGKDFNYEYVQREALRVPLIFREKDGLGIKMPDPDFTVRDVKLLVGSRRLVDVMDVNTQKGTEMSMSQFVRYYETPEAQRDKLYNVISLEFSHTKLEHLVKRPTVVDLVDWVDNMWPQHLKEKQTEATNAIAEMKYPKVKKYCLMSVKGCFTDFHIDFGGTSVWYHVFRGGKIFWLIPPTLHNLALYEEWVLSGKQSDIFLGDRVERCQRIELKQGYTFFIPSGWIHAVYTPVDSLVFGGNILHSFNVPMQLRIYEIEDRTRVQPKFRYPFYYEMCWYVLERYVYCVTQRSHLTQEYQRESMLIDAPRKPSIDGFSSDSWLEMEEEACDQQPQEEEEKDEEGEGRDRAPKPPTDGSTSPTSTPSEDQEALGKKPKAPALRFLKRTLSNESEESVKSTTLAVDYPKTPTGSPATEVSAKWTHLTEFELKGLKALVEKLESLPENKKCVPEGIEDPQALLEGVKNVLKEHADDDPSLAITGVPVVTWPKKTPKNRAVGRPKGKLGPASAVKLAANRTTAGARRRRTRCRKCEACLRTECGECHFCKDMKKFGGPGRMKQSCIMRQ
Description: This assay determines the ability of a test compound to inhibit FBXL11, FBXL10, and PHF8 demethylase activity. Baculovirus expressed FBXL11 (GenBank Accession #NM_012308, AA1-1162) was purchased from BPS Bioscience (Cat#50102). Baculovirus expressed FBXL10 (GenBank Accession #NM_032590, AA 1-650) was purchased from BPS Bioscience (Cat #50120). Baculovirus expressed PHF8 (GenBank Accession NP_055922.1) was purchased from Active Motif (Cat#31435).
The ability of test compounds to inhibit the activity of FBXL10 was determined in 384-well plate format under the following reaction conditions: 0.3 nM FBXL10, 30 nM H3K36me2-biotin labeled peptide (Anaspec cat # 64442), 0.2 µM alpha-ketoglutaric acid in assay buffer of 50 mM HEPES, pH7.3, 0.005% Brij35, 0.5 mM TCEP, 0.2 mg/ml BSA, 50 µM sodium L-ascorbate, 5 µM ammonium iron(II) sulfate. Reaction product is determined quantitatively by AlphaScreen detection after the addition of detection reagents anti-H3K36me1 antibody, AlphaScreen® Streptavidin-coated Donor beads, and AlphaScreen® Protein A Acceptor beads in 50 mM HEPES, pH7.3, 10 mM NaCl, 0.005% Brij35, 5 mM EDTA, 2 mg/ml BSA to final 10 µg/ml beads.
The assay reaction was initiated by the following: 3 µl of the mixture of 90 nM H3K36me2-biotin labeled peptide and 0.6 µM alpha-ketoglutaric acid with 3 µl of 11-point serial diluted inhibitor in 3% DMSO are added to each well of 384 well Proxiplate (Perkin Elmer), followed by the addition of 3 µl of 0.9 nM FBXL10 to initiate the reaction. The reaction mixture is incubated at room temperature for 1 hour, and terminated by the addition of 3 µl of appropriate dilution of anti H3K36me1 antibody in 50 mM HEPES, pH7.3, 10 mM NaCl, 0.005% Brij35, 5 mM EDTA, 2 mg/ml BSA. Plates will then incubated at room temperature for 40 minutes, followed by addition of 3 µl of 50 µg/ml AlphaScreen® Streptavidin-coated Donor beads and AlphaScreen® Protein A Acceptor beads in 50 mM HEPES, pH7.3, 10 mM NaCl, 0.005% Brij35, 5 mM EDTA, 2 mg/ml BSA. Plates will then be read by EnVision Multilabel Reader in AlphaScreen mode after minimum 2 hour incubation at room temperature. The AlphaScreen signal for each well is used to determine inhibition constant (IC50).

[2] = target: T2, JMJD3 (Homo sapiens, UniProt O15054); experiment: JMJD3 in vitro enzyme inhibition assay (AlphaScreen); format: biochemical; settings: Table 5; 1 nM JMJD3, H3K27me3-biotin labeled peptide
T2 construct: purchased BPS Bioscience 50115
Description: This assay determines the ability of a test compound to inhibit Jarid1B, JMJD2C and JMJD3 demethylase activity. Baculovirus expressed Jarid1B (GenBank Accession #NM-006618, AA 2-751) was purchased from BPS Bioscience (Cat #50121) or custom made by MolecularThroughput. Baculovirus expressed JMJD2C (GenBank Accession #BC143571, AA 2-372) was purchased from BPS Bioscience (Cat#50105). Baculovirus expressed JMJD3 (GenBank Accession #NM-001080424, AA1043-end) was purchased from BPS Bioscience (Cat#50115).
The ability of test compounds to inhibit the activity of JMJD3 was determined in 384-well plate format under the following reaction conditions: 1 nM JMJD3, 250 nM H3K27me3-biotin labeled peptide (Anaspec cat # 64367), 1 µM alpha-ketoglutaric acid in assay buffer of 50 mM HEPES, pH7.3, 0.005% Brij35, 0.5 mM TCEP, 0.2 mg/ml BSA, 50 µM sodium L-ascorbate, 5 µM ammonium iron(II) sulfate. Reaction product is determined quantitatively by AlphaScreen detection after the addition of detection reagents anti-H3K27me1 antibody, 5 µg/ml AlphaScreen® Streptavidin-coated Donor beads, and 5 µg/ml AlphaScreen® Protein A Acceptor beads in 50 mM HEPES, pH7.3, 10 mM NaCl, 0.005% Brij35, 10 mM EDTA, 2 mg/ml BSA.
The assay reaction was initiated by the following: 3 µl of the mixture of 750 nM H3K27me3-biotin labeled peptide and 3 µM alpha-ketoglutaric acid with 3 µl of 11-point serial diluted inhibitor in 3% DMSO are added to each well of 384 well Proxiplate (Perkin Elmer), followed by the addition of 3 µl of 3 nM JMJD3 to initiate the reaction. The reaction mixture is incubated at room temperature for 20 minutes, and terminated by the addition of 3 µl of appropriate dilution of anti H3K27me1 antibody in 50 mM HEPES, pH7.3, 10 mM NaCl, 0.005% Brij35, 10 mM EDTA, 2 mg/ml BSA. Plates will then incubated at room temperature for 1 hour, followed by addition of 3 µl of 25 µg/ml AlphaScreen® Streptavidin-coated Donor beads and AlphaScreen® Protein A Acceptor beads in 50 mM HEPES, pH7.3, 10 mM NaCl, 0.005% Brij35, 10 mM EDTA, 2 mg/ml BSA. Plates will then be read by EnVision Multilabel Reader in AlphaScreen mode after minimum 2 hour incubation at room temperature. The AlphaScreen signal for each well is used to determine inhibition constant (IC50).

[3] = Table 3, 0.3 nM FBXL10, H3K36me2-biotin labeled peptide

T2 sequence (O15054 1043-1682 isoform O15054-1): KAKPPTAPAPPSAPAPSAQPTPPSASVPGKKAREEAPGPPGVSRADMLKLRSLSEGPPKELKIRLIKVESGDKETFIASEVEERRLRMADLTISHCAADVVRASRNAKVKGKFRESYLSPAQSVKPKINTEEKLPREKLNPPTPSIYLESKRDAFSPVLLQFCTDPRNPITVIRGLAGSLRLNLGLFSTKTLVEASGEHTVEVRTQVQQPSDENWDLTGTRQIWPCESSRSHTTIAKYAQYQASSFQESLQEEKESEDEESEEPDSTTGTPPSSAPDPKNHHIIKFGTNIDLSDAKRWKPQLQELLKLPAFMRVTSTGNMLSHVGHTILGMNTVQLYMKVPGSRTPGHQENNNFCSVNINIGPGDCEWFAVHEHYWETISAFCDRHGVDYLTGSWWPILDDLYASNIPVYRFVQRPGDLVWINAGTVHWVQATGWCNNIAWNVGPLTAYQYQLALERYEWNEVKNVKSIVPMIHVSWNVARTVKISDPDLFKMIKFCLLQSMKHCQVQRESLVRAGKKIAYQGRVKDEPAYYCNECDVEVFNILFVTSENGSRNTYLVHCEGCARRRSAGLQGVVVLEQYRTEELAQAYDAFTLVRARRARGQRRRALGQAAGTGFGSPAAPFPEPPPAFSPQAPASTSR

pIC50 [1, 3]	pIC50 ([1]; Table 5)	pIC50 [2]	Structure (SMILES)
≥ 7.00			c1ccc(Cn2cnc(-c3cc4[nH]nnc4cn3)c2)cc1 [Example 44, 1-benzyl-4-{1H-[1,2,3]triazolo[4,5-c]pyridin-6-yl}-1H-imidazole]
≥ 7.00			Clc1ccccc1Cn1cnc(-c2cc3[nH]nnc3cn2)c1 [Example 45, 1-[(2-chlorophenyl)methyl]-4-{1H-[1,2,3]triazolo[4,5-c]pyridin-6-yl}-1H-imidazole]
≥ 7.00			Clc1cccc(Cn2cnc(-c3cc4[nH]nnc4cn3)c2)c1 [Example 46, 1-[(3-chlorophenyl)methyl]-4-{1H-[1,2,3]triazolo[4,5-c]pyridin-6-yl}-1H-imidazole]
≥ 7.00			Clc1ccc(Cn2cnc(-c3cc4[nH]nnc4cn3)c2)cc1 [Example 47, 1-[(4-chlorophenyl)methyl]-4-{1H-[1,2,3]triazolo[4,5-c]pyridin-6-yl}-1H-imidazole]
≥ 7.00			Clc1ccc(Cn2cnc(-c3cc4[nH]nnc4cn3)c2)cc1Cl [Example 48, 1-[(3,4-dichlorophenyl)methyl]-4-{1H-[1,2,3]triazolo[4,5-c]pyridin-6-yl}-1H-imidazole]
≥ 7.00			Clc1ccc(-n2cnc(-c3cc4[nH]nnc4cn3)c2)cc1 [Example 49, 1-(4-chlorophenyl)-4-{1H-[1,2,3]triazolo[4,5-c]pyridin-6-yl}-1H-imidazole]
≥ 7.00			Clc1ccccc1-n1cnc(-c2cc3[nH]nnc3cn2)c1 [Example 50, 1-(2-chlorophenyl)-4-{1H-[1,2,3]triazolo[4,5-c]pyridin-6-yl}-1H-imidazole]
6.00 to 7.00			Clc1cccc(-n2cnc(-c3cc4[nH]nnc4cn3)c2)c1 [Example 51, 1-(3-chlorophenyl)-4-{1H-[1,2,3]triazolo[4,5-c]pyridin-6-yl}-1H-imidazole]
	≥ 7.00	< 5.00	FC(F)(F)c1[nH]nnc1-c1ccnc(-c2cn(CCc3ccccc3Cl)cn2)c1 [Example 57]
	≥ 7.00	< 5.00	FC(F)(F)c1[nH]nnc1-c1ccnc(-c2cn(CC3CCCc4ccccc43)cn2)c1 (stereo not shown) [Example 58, 2-{1-[(1,2,3,4-tetrahydronaphthalen-1-yl)methyl]-1H-imidazol-4-yl}-4-[5-(trifluoromethyl)-1H-1,2,3-triazol-4-yl]pyridine]
	6.00 to 7.00		FC(F)(F)c1ccccc1CCn1cnc(-c2cc(-c3nn[nH]c3C(F)(F)F)ccn2)c1 [Example 60, 4-[5-(trifluoromethyl)-1H-1,2,3-triazol-4-yl]-2-(1-{2-[2-(trifluoromethyl)phenyl]ethyl}-1H-imidazol-4-yl)pyridine]
	≥ 7.00	< 5.00	Fc1ccc(Cn2cnc(-c3cc(-c4nn[nH]c4C(F)(F)F)ccn3)c2)cc1 [Example 61, 2-{1-[(4-fluorophenyl)methyl]-1H-imidazol-4-yl}-4-[5-(trifluoromethyl)-1H-1,2,3-triazol-4-yl]pyridine]
	≥ 7.00	< 5.00	FC(F)(F)c1[nH]nnc1-c1ccnc(-c2cn(Cc3ccc(Cl)cc3)cn2)c1 [Example 63, 2-{1-[(4-chlorophenyl)methyl]-1H-imidazol-4-yl}-4-[5-(trifluoromethyl)-1H-1,2,3-triazol-4-yl]pyridine]
	≥ 7.00	< 5.00	FC(F)(F)c1[nH]nnc1-c1ccnc(-c2cn(Cc3ccccc3Cl)cn2)c1 [Example 64, 2-{1-[(2-chlorophenyl)methyl]-1H-imidazol-4-yl}-4-[5-(trifluoromethyl)-1H-1,2,3-triazol-4-yl]pyridine]
	6.00 to 7.00		FC(F)(F)c1[nH]nnc1-c1ccnc(-c2cn(CC3CCc4ccccc43)cn2)c1 (stereo not shown) [Example 83, 2-{1-[(2,3-dihydro-1H-inden-1-yl)methyl]-1H-imidazol-4-yl}-4-[5-(trifluoromethyl)-1H-1,2,3-triazol-4-yl]pyridine]
	≥ 7.00		Fc1ccccc1CCn1cnc(-c2cc(-c3nn[nH]c3C(F)(F)F)ccn2)c1 [Example 84, 2-{1-[2-(2-fluorophenyl)ethyl]-1H-imidazol-4-yl}-4-[5-(trifluoromethyl)-1H-1,2,3-triazol-4-yl]pyridine]
	≥ 7.00		Fc1ccc2c(c1)C(n1cnc(-c3cc(-c4nn[nH]c4C(F)(F)F)ccn3)c1)CC2 (stereo not shown) [Example 85, 2-[1-(6-fluoro-2,3-dihydro-1H-inden-1-yl)-1H-imidazol-4-yl]-4-[5-(trifluoromethyl)-1H-1,2,3-triazol-4-yl]pyridine]
		< 5.00	CCc1ccc(CCn2cnc(-c3cc(-c4nn[nH]c4C(F)(F)F)ccn3)c2)cc1 [Example 95, 2-{1-[2-(4-ethylphenyl)ethyl]-1H-imidazol-4-yl}-4-[5-(trifluoromethyl)-1H-1,2,3-triazol-4-yl]pyridine]
		< 5.00	COc1cccc2c1CCCC2Cn1cnc(-c2cc(-c3nn[nH]c3C(F)(F)F)ccn2)c1 (stereo not shown) [Example 104, 2-{1-[(5-methoxy-1,2,3,4-tetrahydronaphthalen-1-yl)methyl]-1H-imidazol-4-yl}-4-[5-(trifluoromethyl)-1H-1,2,3-triazol-4-yl]pyridine]

Structure (SMILES)	pIC50 [1, 3]	pIC50 ([1]; Table 5)	pIC50 [2]
CCOc1ccccc1CCn1cnc(-c2cc(-c3nn[nH]c3C(F)(F)F)ccn2)c1 [Example 59]		6.00 to 7.00	< 5.00
Fc1ccccc1Cn1cnc(-c2cc(-c3nn[nH]c3C(F)(F)F)ccn2)c1 [Example 62, 2-{1-[(2-fluoroprtenyl)methyl]-1H-imidazol-4-yl}-4-[5-(trifluoromethyl)-1H-1,2,3-triazol-4-yl]pyridine]		≥ 7.00	< 5.00
